Source: BindingDB's records for doi:10.1016/j.bmcl.2015.03.051 (Mayo Clinic, 2015)

Experiments:
[1] = target: T1, Cholecystokinin receptor type A (Homo sapiens, UniProt P32238)
T1 sequence (P32238 whole entry): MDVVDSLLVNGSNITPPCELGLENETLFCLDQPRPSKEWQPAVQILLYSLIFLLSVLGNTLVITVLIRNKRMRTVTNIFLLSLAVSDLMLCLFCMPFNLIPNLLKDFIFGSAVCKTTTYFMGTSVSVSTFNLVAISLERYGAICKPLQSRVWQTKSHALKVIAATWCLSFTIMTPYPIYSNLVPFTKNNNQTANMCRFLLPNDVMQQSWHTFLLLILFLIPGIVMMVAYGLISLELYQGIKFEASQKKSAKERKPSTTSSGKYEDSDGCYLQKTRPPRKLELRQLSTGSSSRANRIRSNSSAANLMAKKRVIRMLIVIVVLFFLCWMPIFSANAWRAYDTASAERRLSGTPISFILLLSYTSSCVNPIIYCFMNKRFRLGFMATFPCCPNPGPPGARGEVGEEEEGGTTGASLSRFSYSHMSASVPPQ

[2] = target: T1, Cholecystokinin receptor type A; assay: Activity at CCK1R (unknown origin) expressed in CHO cells assessed as CCK EC50 measured as intracellular calcium responses at 1000 nM (Rvb = 7 to 14 pM)
[3] = target: T1, Cholecystokinin receptor type A; assay: Activity at CCK1R (unknown origin) expressed in CHO cells assessed as CCK EC50 measured as intracellular calcium responses at 100 nM (Rvb = 7 to 14 pM)
[4] = target: T1, Cholecystokinin receptor type A; remark: listed apart in the source

Compound	IC50 [1] [nM]	EC50 [2] [nM]	EC50 [3] [nM]	IC50 [4] [nM]
COc1ccc(N(C)C(=O)CN2C(=O)C(NC(=O)Nc3ccccc3)C(=O)N(c3ccccc3)c3ccccc32)cc1 (stereo unspecified) [2-[2,4-Dioxo-5-phenyl-3-(3-phenyl-ureido)-2,3,4,5-tetrahydro-benzo[b][1,4]diazepin-1-yl]-N-(4-methoxy-phenyl)-N-methyl-acetamide]	25	0.120	0.051	14
O=C(CN1C(=O)C(NC(=O)Nc2ccccc2)C(=O)N(c2ccccc2)c2ccccc21)Nc1ccccc1 (stereo unspecified)	–	0.039	0.014	–
